Test results published in patent US9512107B2, “Therapeutically active compositions and their methods of use” (Agios Pharmaceuticals, Inc., priority 2012, dated 2016).
Substitutions are numbered along the chain they refer to.

Assays:
[1] = system: U87MG pLVX-IDH2 R140Q-neo cells; assay: U87MG pLVX-IDH2 R140Q-neo cell based assay, 2-HG in media by LC-MS at 48 hours; conditions: Homo sapiens, U-87 MG
In short: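 2-HG secreted into the medium was measured by LC-MS after 48 h of compound treatment (0.2% DMSO final) of U87MG pLVX-IDH2 R140Q-neo cells in DMEM/10% FBS. The same wells were assayed at 72 h by CellTiter-Glo luminescence for effects on growth.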

[2] = target: T1, IDH2 R140Q (Homo sapiens, UniProt P48735, R140Q); assay: IDH2 R140Q enzymatic assay (cofactor depletion, similar format); type: biochemical; conditions: read-out: Enz R140Q
T1 sequence (P48735 40-452 R140Q): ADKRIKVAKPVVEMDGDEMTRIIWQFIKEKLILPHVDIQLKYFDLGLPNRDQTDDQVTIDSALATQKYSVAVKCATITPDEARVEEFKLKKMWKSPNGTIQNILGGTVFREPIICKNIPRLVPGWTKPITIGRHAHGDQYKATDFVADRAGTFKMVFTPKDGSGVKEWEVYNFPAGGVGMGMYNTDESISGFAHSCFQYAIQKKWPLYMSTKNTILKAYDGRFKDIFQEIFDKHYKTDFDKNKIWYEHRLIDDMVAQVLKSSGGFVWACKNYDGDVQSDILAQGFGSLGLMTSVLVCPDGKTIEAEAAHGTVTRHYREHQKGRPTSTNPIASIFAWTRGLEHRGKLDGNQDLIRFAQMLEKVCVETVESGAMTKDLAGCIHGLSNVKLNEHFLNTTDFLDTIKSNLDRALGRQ

[3] = target: T2, IDH2 R172K (Homo sapiens, UniProt P48735, R172K); assay: IDH2 R172K enzymatic assay (NADPH cofactor depletion, diaphorase/resazurin readout); type: biochemical; conditions: read-out: Enz R172K
T2 sequence (P48735 40-452 R172K): T1 sequence (P48735 40-452 R140Q) with Q101R, R133K
In short: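 Cofactor depletion format: enzyme + compound 1 h RT; add substrate mix (50 μM NADPH, 6.3 mM α-KG); react 1 h RT; quench with stop mix (36 μg/ml diaphorase, 60 μM resazurin); read resorufin fluorescence as residual NADPH.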

| SMILES | IC50 [1] [nM] | IC50 [2] [nM] | IC50 [3] [nM] |
| --- | --- | --- | --- |
| FC(F)(F)c1cc(Nc2nc(NC3C4COCC43)nc(-c3cccc(C(F)(F)F)n3)n2)ccn1 (stereo not drawn) [Compound 504, N-(3-Oxa-bicyclo[3.1.0]hex-6-yl)-N′-(2-trifluoromethyl-pyridin-4-yl)-6-(6-trifluoromethyl-pyridin-2-yl)-[1,3,5]triazine-2,4-diamine] | < 100 | 100 to 1000 | < 100 |
| N#Cc1cc(Nc2nc(NC3C4COCC43)nc(-c3cccc(C(F)(F)F)n3)n2)ccn1 (stereo not drawn) [Compound 505, 4-[4-(3-Oxa-bicyclo[3.1.0]hex-6-ylamino)-6-(6-trifluoromethyl-pyridin-2-yl)-[1,3,5]triazin-2-ylamino]-pyridine-2-carbonitrile] | < 100 | 100 to 1000 | 100 to 1000 |
| Fc1cncc(Nc2nc(NC3C4COCC43)nc(-c3cccc(Cl)n3)n2)c1 (stereo not drawn) [Compound 511, 6-(6-Chloro-pyridin-2-yl)-N-(5-fluoro-pyridin-3-yl)-N′-(3-oxa-bicyclo[3.1.0]hex-6-yl)-[1,3,5]triazine-2,4-diamine] | < 100 | 100 to 1000 | 100 to 1000 |
| Fc1ccc(Nc2nc(NC3C4COCC43)nc(-c3cccc(Cl)n3)n2)cn1 (stereo not drawn) [Compound 512, 6-(6-Chloro-pyridin-2-yl)-N-(6-fluoro-pyridin-3-yl)-N′-(3-oxa-bicyclo[3.1.0]hex-6-yl)-[1,3,5]triazine-2,4-diamine] | < 100 | 100 to 1000 | 100 to 1000 |
| CC1CC1Nc1nc(Nc2ccnc(C(F)(F)F)c2)nc(-c2ccccn2)n1 (stereo not drawn) [Compound 516, N-(2-Methyl-cyclopropyl)-6-pyridin-2-yl-N′-(2-trifluoromethyl-pyridin-4-yl)-[1,3,5]triazine-2,4-diamine] | < 100 | 100 to 1000 | < 100 |
| CC(C)Nc1nc(Nc2cccc(S(=O)(=O)NCC(F)(F)F)c2)nc(-c2cccc(C(F)(F)F)n2)n1 [Compound 519] | < 100 | 100 to 1000 | 100 to 1000 |
| CC(C)(C)CNc1nc(Nc2cncnc2)nc(-c2cccc(C(F)(F)F)n2)n1 [Compound 521, N-(2,2-Dimethyl-propyl)-N′-pyrimidin-5-yl-6-(6-trifluoromethyl-pyridin-2-yl)-[1,3,5]triazine-2,4-diamine] | < 100 | 100 to 1000 | < 100 |
| CC(C)(C)CNc1nc(Nc2ccnc(C(F)(F)F)c2)nc(-c2nccc(C(F)(F)F)n2)n1 [Compound 523, N2-neopentyl-N4-(2-(trifluoromethyl)pyridin-4-yl)-6-(4-(trifluoromethyl)pyrimidin-2-yl)-1,3,5-triazine-2,4-diamine] | < 100 | 100 to 1000 | < 100 |
| COCCCNc1nc(Nc2ccnc(C(F)(F)F)c2)nc(-c2cccc(C(F)(F)F)n2)n1 [Compound 528, N-(3-Methoxy-propyl)-N′-(2-trifluoromethyl-pyridin-4-yl)-6-(6-trifluoromethyl-pyridin-2-yl)-[1,3,5]triazine-2,4-diamine] | < 100 | 100 to 1000 | 100 to 1000 |
| FC(F)(F)c1cc(Nc2nc(NC3CCOC3)nc(-c3cccc(C(F)(F)F)n3)n2)ccn1 (stereo not drawn) [Compound 529, N-(Tetrahydro-furan-3-yl)-N′-(2-trifluoromethyl-pyridin-4-yl)-6-(6-trifluoromethyl-pyridin-2-yl)-[1,3,5]triazine-2,4-diamine] | < 100 | 100 to 1000 | < 100 |

Second part, the compound after the results:

| IC50 [1] [nM] | IC50 [2] [nM] | IC50 [3] [nM] | SMILES |
| --- | --- | --- | --- |
| < 100 | 100 to 1000 | 100 to 1000 | CC(C)Nc1nc(Nc2cccc(S(=O)(=O)NCC3CC3)c2)nc(-c2cccc(Cl)n2)n1 [Compound 497, 3-[4-(6-Chloro-pyridin-2-yl)-6-isopropylamino-[1,3,5]triazin-2-ylamino]-N-cyclopropylmethyl-benzenesulfonamide] |
| 100 to 1000 | 100 to 1000 | 1000 to 10000 | CC(C)(C)CNc1nc(Nc2cncc(C#N)c2)nc(-c2cccc(Cl)n2)n1 [Compound 498, 5-[4-(6-Chloro-pyridin-2-yl)-6-(2,2-dimethyl-propylamino)-[1,3,5]triazin-2-ylamino]-nicotinonitrile] |
| < 100 | 100 to 1000 | < 100 | COCC(C)Nc1nc(Nc2ccnc(C(F)(F)F)c2)nc(-c2cccc(Cl)n2)n1 (stereo not drawn) [Compound 499, 6-(6-Chloro-pyridin-2-yl)-N-(2-methoxy-1-methyl-ethyl)-N′-(2-trifluoromethyl-pyridin-4-yl)-[1,3,5]triazine-2,4-diamine] |
| < 100 | 100 to 1000 | < 100 | CC(C)(O)CNc1nc(Nc2ccnc(F)c2)nc(-c2cccc(C(F)(F)F)n2)n1 [Compound 500, 1-[4-(2-Fluoro-pyridin-4-ylamino)-6-(6-trifluoromethyl-pyridin-2-yl)-[1,3,5]triazin-2-ylamino]-2-methyl-propan-2-ol] |
| 100 to 1000 | 100 to 1000 | 1000 to 10000 | Cc1cc(Nc2nc(NC(C)C)nc(-c3cccc(C(F)(F)F)n3)n2)cnn1 [Compound 501, N-Isopropyl-N′-(6-methyl-pyridazin-4-yl)-6-(6-trifluoromethyl-pyridin-2-yl)-[1,3,5]triazine-2,4-diamine] |
| < 100 | 1000 to 10000 | < 100 | CC(C)Nc1nc(Nc2cncc(F)c2)nc(-c2cccc(C(F)(F)F)n2)n1 [Compound 503, N-(5-Fluoro-pyridin-3-yl)-N′-isopropyl-6-(6-trifluoromethyl-pyridin-2-yl)-[1,3,5]triazine-2,4-diamine] |
| < 100 | 1000 to 10000 | 100 to 1000 | CC(C)Nc1nc(Nc2ccnc(C(C)(F)F)c2)nc(-c2cccc(Cl)n2)n1 [Compound 513, 6-(6-Chloro-pyridin-2-yl)-N-[2-(1,1-difluoro-ethyl)-pyridin-4-yl]-N′-isopropyl-[1,3,5]triazine-2,4-diamine] |
| < 100 | 100 to 1000 | < 100 | CC(C)Nc1nc(Nc2ccnc(C(C)(C)O)c2)nc(-c2cccc(Cl)n2)n1 [Compound 514, 2-{4-[4-(6-Chloro-pyridin-2-yl)-6-isopropylamino-[1,3,5]triazin-2-ylamino]-pyridin-2-yl}-propan-2-ol] |
| < 100 | 100 to 1000 | < 100 | CC(C)(C)CNc1nc(Nc2ccnc(C(F)(F)F)c2)nc(-c2ccccn2)n1 [Compound 517, N-(2,2-Dimethyl-propyl)-6-pyridin-2-yl-N′-(2-trifluoromethyl-pyridin-4-yl)-[1,3,5]triazine-2,4-diamine] |
| < 100 | 100 to 1000 | < 100 | CC(C)Nc1nc(Nc2cccc(S(=O)(=O)NCC(F)(F)F)c2)nc(-c2cccc(Cl)n2)n1 [Compound 518, 3-[4-(6-Chloro-pyridin-2-yl)-6-isopropylamino-[1,3,5]triazin-2-ylamino]-N-(2,2,2-trifluoro-ethyl)-benzenesulfonamide] |
| < 100 | 100 to 1000 | 100 to 1000 | CC(C)Nc1nc(Nc2ccnc(C(F)(F)F)c2)nc(-c2nccc(C(F)(F)F)n2)n1 [Compound 522, N2-isopropyl-N4-(2-(trifluoromethyl)pyridin-4-yl)-6-(4-(trifluoromethyl)pyrimidin-2-yl)-1,3,5-triazine-2,4-diamine] |
| < 100 | 100 to 1000 | < 100 | COC(C)CNc1nc(Nc2ccnc(C(F)(F)F)c2)nc(-c2cccc(C(F)(F)F)n2)n1 (stereo not drawn) [Compound 524, N-(2-Methoxy-propyl)-6-(6-trifluoromethyl-pyridin-2-yl)-N′-(2-trifluoromethyl-pyridin-4-yl)-[1,3,5]triazine-2,4-diamine] |
| < 100 | 100 to 1000 | < 100 | CC(CO)Nc1nc(Nc2ccnc(C(F)(F)F)c2)nc(-c2cccc(C(F)(F)F)n2)n1 (stereo not drawn) [Compound 527, 2-[4-(6-Trifluoromethyl-pyridin-2-yl)-6-(2-trifluoromethyl-pyridin-4-ylamino)-[1,3,5]triazin-2-ylamino]-propan-1-ol] |
| < 100 | 100 to 1000 | 100 to 1000 | CC(C)(CO)CNc1nc(Nc2ccnc(C(F)(F)F)c2)nc(-c2cccc(C(F)(F)F)n2)n1 [Compound 530, 2,2-Dimethyl-3-[4-(6-trifluoromethyl-pyridin-2-yl)-6-(2-trifluoromethyl-pyridin-4-ylamino)-[1,3,5]triazin-2-ylamino]-propan-1-ol] |
